Laboratory results published in patent US10562912B2 (C&C Research Laboratories, priority 2013, dated 2020).

Tests used:
Format in all cases: cell-based
[1] = test system: LNCaP; assay: Cell growth inhibition assay, prostate cancer cell line LNCaP (medium with 10 ng/mL IL-6); conditions: Homo sapiens, medium supplemented with 10 ng/mL of IL-6, 10,000 cells/well
[2] = target: T1, STAT3 (Homo sapiens, UniProt P40763); assay: STAT3 reporter gene assay (luciferase), LNCaP stable cell line (pSTAT3-TA-luc), IL-6 stimulation
T1 construct: plasmid pSTAT3-TA-luc), which contains a stably operating STAT3 promoter; endogenous in cells
T1 sequence (P40763 whole entry): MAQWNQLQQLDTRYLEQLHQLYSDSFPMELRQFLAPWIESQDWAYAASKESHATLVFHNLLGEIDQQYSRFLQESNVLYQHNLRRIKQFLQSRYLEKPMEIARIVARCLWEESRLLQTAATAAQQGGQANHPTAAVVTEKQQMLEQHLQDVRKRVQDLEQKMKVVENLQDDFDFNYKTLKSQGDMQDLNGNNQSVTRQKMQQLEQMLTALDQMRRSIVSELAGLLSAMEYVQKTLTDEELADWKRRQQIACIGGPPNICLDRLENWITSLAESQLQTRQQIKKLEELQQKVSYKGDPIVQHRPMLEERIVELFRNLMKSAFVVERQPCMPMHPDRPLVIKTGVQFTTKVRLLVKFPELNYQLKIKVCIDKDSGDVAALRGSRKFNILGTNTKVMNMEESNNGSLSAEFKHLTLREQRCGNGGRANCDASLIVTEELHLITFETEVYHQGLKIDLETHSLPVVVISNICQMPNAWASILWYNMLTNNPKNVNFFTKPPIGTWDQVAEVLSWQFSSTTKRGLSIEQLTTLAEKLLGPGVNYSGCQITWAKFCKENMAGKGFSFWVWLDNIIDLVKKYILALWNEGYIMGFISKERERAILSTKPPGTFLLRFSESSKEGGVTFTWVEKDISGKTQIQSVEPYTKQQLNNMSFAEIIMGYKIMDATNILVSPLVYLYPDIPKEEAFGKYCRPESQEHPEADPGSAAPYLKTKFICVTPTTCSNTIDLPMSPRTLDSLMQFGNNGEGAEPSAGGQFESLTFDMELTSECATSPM
Method in brief: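 Cytotoxicity was run on a duplicate plate with CellTiter-Glo, while the other plate gave luciferase read-outs from lysed LNCaP pSTAT3-TA-luc reporter cells. Cells were treated with graded compound concentrations plus IL-6 (10 ng/mL final) for 24–48 h in 3% DCC-FBS medium. Unstimulated and stimulated wells served as negative and positive controls.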

[3] = test system: DU-145; assay: Cell growth inhibition assay, prostate cancer cell line DU-145; conditions: Homo sapiens, DU-145 prostate cancer cell line
Method in brief: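 Readout was CellTiter-Glo luminescence after 72–96 h of compound exposure at 37 °C, 5% CO2. Plating density was 3,000 cells/well for DU-145 and HCT116 and 5,000 cells/well for SW626. Controls were 0.1% DMSO wells and medium-only wells.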

Structure (SMILES)	IC50 [1]	IC50 [2]	IC50 [3]
CC(C)Oc1cc(CN2CCOCC2)cc(C(C)(C)c2cc(Cl)cc(NC(=O)c3cc4cc(NS(C)(=O)=O)ccc4s3)c2)c1 [Example 126, N-(3-chloro-5-(2-(3-isopropoxy-5-(morpholinomethyl)phenyl)propan-2-yl)phenyl)-5-(methylsulfonamido)benzo[b]thiophene-2-carboxamide]	0.11 µM	0.1 µM	0.11 µM
CC(C)(c1ccncc1)c1cc(Cl)cc(NC(=O)c2cc3cc(NS(C)(=O)=O)ccc3s2)c1 [Example 191, N-(3-chloro-5-(2-(pyridin-4-yl)propan-2-yl)phenyl)-5-(methylsulfonamido)benzo[b]thiophene-2-carboxamide]	2.2 µM	0.54 µM	0.74 µM
COc1sccc1C(C)(C)c1cc(Cl)cc(NC(=O)c2cc3cc(NS(C)(=O)=O)ccc3s2)c1 [Example 176, N-(3-chloro-5-(2-(2-methoxythiophen-3-yl)propan-2-yl)phenyl)-5-(methylsulfonamido)benzo[b]thiophene-2-arboxamide]	0.071 µM	0.036 µM	0.038 µM
CC(C)(c1cccc(Cn2ccnc2)c1)c1cc(Br)cc(NC(=O)c2cc3cc(NS(C)(=O)=O)ccc3s2)c1 [Example 120, N-(3-(2-(3-((1H-imidazol-1-yl)methyl)phenyl)propan-2-yl)-5-bromophenyl)-5-(methylsulfonamido)benzo[b]thiophene-2-carboxamide]	3.6 µM	0.66 µM	2.2 µM
CC(C)Oc1cc(CN2CCNCC2)cc(C(C)(C)c2cc(Br)cc(NC(=O)c3cc4cc(NS(C)(=O)=O)ccc4s3)c2)c1 [Example 124, N-(3-bromo-5-(2-(3-isopropoxy-5-(piperazin-1-ylmethyl)phenyl)propan-2-yl)phenyl)-5-(methylsulfonamido)benzo[b]thiophene-2-carboxamide]	6.5 µM	4 µM	2.1 µM
CC(C)(c1cc(Cl)cc(NC(=O)c2cc3cc(NS(C)(=O)=O)ccc3s2)c1)c1cccs1 [Example 170, N-(3-chloro-5-(2-(thiophen-2-yl)propan-2-yl)phenyl)-5-(methylsulfonamido)benzo[b]thiophene-2-carboxamide]	0.059 µM	0.068 µM	0.005 µM
CC#Cc1cc(OC(F)(F)F)cc(C(C)(C)c2cc(Cl)cc(NC(=O)c3cc4cc(NS(C)(=O)=O)ccc4s3)c2)c1 [Example 114, N-(3-chloro-5-(2-(3-(prop-1-yn-1-yl)-5-(trifluoromethoxy)phenyl)propan-2-yl)phenyl)-5-(methylsulfonamido)benzo[b]thiophene-2-carboxamide]	0.061 µM	0.02 µM	0.014 µM
CS(=O)(=O)Nc1ccc2sc(C(=O)Nc3cc(Cl)cc(-c4cccs4)c3)cc2c1 [Example 336, N-(3-chloro-5-(thiophen-2-yl)phenyl)-5-(methylsulfonamido)benzo[b]thiophene-2-carboxamide]	0.21 µM	0.13 µM	0.065 µM
CC(C)Oc1cc(OC(F)(F)F)cc(C(C)(C)c2cc(Cl)cc(NC(=O)c3cc4cc(OP(=O)(O)O)ccc4s3)c2)c1 [Example 193, 2-((3-chloro-5-(2-(3-isopropoxy-5-(trifluoromethoxy)phenyl)propan-2-yl)phenyl)carbamoyl)benzo[b]thiophen-5-yl dihydrogen phosphate]	0.99 µM	0.38 µM	0.39 µM
CC(C)Oc1cc(OC(F)(F)F)cc(C(C)(C)c2cc(Cl)cc(NC(=O)c3cc4ccc(NS(C)(=O)=O)nc4[nH]3)c2)c1 [Example 100, N-(3-chloro-5-(2-(3-isopropoxy-5-(trifluoromethoxy)phenyl)propan-2-yl)phenyl)-6-(methylsulfonamido)-1H-pyrrolo[2,3-b]pyridine-2-carboxamide]	> 10 µM	0.042 µM	0.33 µM
CC(C)Oc1cc(CN2CCN(c3noc(C(C)C)n3)CC2)cc(C(C)(C)c2cc(F)cc(NC(=O)c3cc4cc(NS(C)(=O)=O)ccc4s3)c2)c1 [Example 136, N-(3-fluoro-5-(2-(3-isopropoxy-5-((4-(5-isopropyl-1,2,4-oxadiazol-3-yl)piperazin-1-yl)methyl)phenyl)propan-2-yl)phenyl)-5-(methylsulfonamido)benzo[b]thiophene-2-carboxamide]	0.38 µM	0.059 µM	0.051 µM
CC(C)Oc1cc(OC(F)(F)F)cc(C(C)(C)c2cc(Cl)cc(NC(=O)c3cn4cc(NS(C)(=O)=O)ccc4n3)c2)c1 [Example 74, N-(3-chloro-5-(2-(3-isopropoxy-5-(trifluoromethoxy)phenyl)propan-2-yl)phenyl)-6-(methylsulfonamido)imidazo[1,2-a]pyridine-2-carboxamide]	6.6 µM	2.7 µM	2.6 µM

The remaining lines, values ahead:

IC50 [1]	IC50 [2]	IC50 [3]	Structure (SMILES)
0.35 µM	0.022 µM	0.018 µM	CS(=O)(=O)Nc1cc2cc(C(=O)Nc3cc(Cl)cc(Oc4ccc(Cl)cc4)c3)sc2cc1Br [Example 453, 6-bromo-N-(3-chloro-5-(4-chlorophenoxy)phenyl)-5-(methylsulfonamido)benzo[b]thiophene-2-carboxamide]
0.33 µM	0.25 µM	0.17 µM	CS(=O)(=O)Nc1ccc2sc(C(=O)Nc3cc(Cl)cc(Oc4cc(Cl)cc(C#N)c4)c3)cc2c1 [Example 458, N-(3-chloro-5-(3-chloro-5-cyanophenoxy)phenyl)-5-(methylsulfonamido)benzo[b]thiophene-2-carboxamide]
0.24 µM	0.14 µM	0.11 µM	CS(=O)(=O)Nc1ccc2sc(C(=O)Nc3cc(Cl)cc(Oc4ccc(F)c(Cl)c4)c3)cc2c1 [Example 461, N-(3-chloro-5-(3-chloro-4-fluorophenoxy)phenyl)-5-(methylsulfonamido)benzo[b]thiophene-2-carboxamide]
0.37 µM	0.1 µM	0.13 µM	CS(=O)(=O)Nc1cc2cc(C(=O)Nc3cc(Cl)cc(Oc4cncs4)c3)sc2cc1Cl [Example 472, 6-chloro-N-(3-chloro-5-(thiazol-5-yloxy)phenyl)-5-(methylsulfonamido)benzo[b]thiophene-2-carboxamide]
0.022 µM	0.021 µM	0.005 µM	CS(=O)(=O)Nc1cc2cc(C(=O)Nc3cc(Cl)cc(Oc4ccc(F)c(Cl)c4)c3)sc2cc1Cl [Example 476, 6-chloro-N-(3-chloro-5-(3-chloro-4-fluorophenoxy)phenyl)-5-(methylsulfonamido)benzo[b]thiophene-2-carboxamide]
0.018 µM	0.012 µM	0.005 µM	CC(C)(c1ccc(F)cc1)c1cc(Cl)cc(NC(=O)c2cc3cc(NS(C)(=O)=O)c(Cl)cc3s2)c1 [Example 182, 6-chloro-N-(3-chloro-5-(2-(4-fluorophenyl)propan-2-yl)phenyl)-5-(methylsulfonamido)benzo[b]thiophene-2-carboxamide]
0.072 µM	0.007 µM	0.007 µM	COCCS(=O)(=O)Nc1cc2cc(C(=O)Nc3cc(Cl)cc(C(C)(C)c4ccc(Cl)cc4)c3)sc2cc1Cl [Example 185, 6-chloro-N-(3-chloro-5-(2-(4-chlorophenyl)propan-2-yl)phenyl)-5-((2-methoxyethyl)sulfonamido)benzo[b]thiophene-2-carboxamide]
0.099 µM	0.1 µM	0.06 µM	CS(=O)(=O)Nc1ccc2sc(C(=O)Nc3cc(Cl)cc(Oc4cccc(OC(F)(F)F)c4)c3)cc2c1 [Example 450, N-(3-chloro-5-(3-(trifluoromethoxy)phenoxy)phenyl)-5-(methylsulfonamido)benzo[b]thiophene-2-carboxamide]
0.007 µM	0.004 µM	0.004 µM	Cc1ccc(C(C)(C)c2cc(Cl)cc(NC(=O)c3cc4cc(NS(C)(=O)=O)c(Cl)cc4s3)c2)s1 [Example 179, 6-chloro-N-(3-chloro-5-(2-(5-methylthiophen-2-yl)propan-2-yl)phenyl)-5-(methylsulfonamido)benzo[b]thiophene-2-carboxamide]
0.036 µM	0.021 µM	0.013 µM	CN(c1cc(Cl)cc(NC(=O)c2cc3cc(NS(C)(=O)=O)c(Cl)cc3s2)c1)c1ccc(F)cc1F [Example 442, 6-chloro-N-(3-chloro-5-((2,4-difluorophenyl)(methyl)amino)phenyl)-5-(methylsulfonamido)benzo[b]thiophene-2-carboxamide]
0.075 µM	0.011 µM	0.016 µM	CC(C)(c1cc(Cl)cc(NC(=O)c2cc3cc(NS(C)(=O)=O)ccc3s2)c1)c1cc(OC(F)(F)F)ccc1F [Example 62, N-(3-chloro-5-(2-(2-fluoro-5-(trifluoromethoxy)phenyl)propan-2-yl)phenyl)-5-(methylsulfonamido)benzo[b]thiophene-2-carboxamide]
